Assay results from BindingDB's records for PubMed 8996185 (SynthÉLabo Recherche, 1997).
“And” between values parts separate entries of the source, which are not always exact repeats. Equal values may be shown once. Where a name gives a salt, the structure may show the parent alone.

Experiments:
[1] = target: Glutamate receptor ionotropic, kainate 1 (Rattus norvegicus, UniProt P22756)
[2] = target: Sodium channel protein type 10 subunit alpha (Rattus norvegicus, UniProt Q62968)
Adenosine receptor A2a = Adenosine receptor A2a (Rattus norvegicus, UniProt P30543)
Sequence of Adenosine receptor A2a (P30543 whole entry): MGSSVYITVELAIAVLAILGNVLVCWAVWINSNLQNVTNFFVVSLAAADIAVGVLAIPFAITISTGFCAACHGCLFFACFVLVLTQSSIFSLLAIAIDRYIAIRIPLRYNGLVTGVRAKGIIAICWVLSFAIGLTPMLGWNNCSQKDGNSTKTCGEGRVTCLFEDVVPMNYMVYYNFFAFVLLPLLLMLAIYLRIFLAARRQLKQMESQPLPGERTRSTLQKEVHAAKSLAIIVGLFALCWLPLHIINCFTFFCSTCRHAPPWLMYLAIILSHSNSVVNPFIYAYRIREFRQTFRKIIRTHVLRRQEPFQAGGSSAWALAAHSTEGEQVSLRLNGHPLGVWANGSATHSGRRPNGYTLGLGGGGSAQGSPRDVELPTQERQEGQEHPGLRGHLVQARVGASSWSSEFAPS

D(3) dopamine receptor = D(3) dopamine receptor (Bos taurus, UniProt F1N454)
[3] = target: T1, Type-1 angiotensin II receptor (Oryctolagus cuniculus, UniProt P34976)
T1 sequence (P34976 whole entry): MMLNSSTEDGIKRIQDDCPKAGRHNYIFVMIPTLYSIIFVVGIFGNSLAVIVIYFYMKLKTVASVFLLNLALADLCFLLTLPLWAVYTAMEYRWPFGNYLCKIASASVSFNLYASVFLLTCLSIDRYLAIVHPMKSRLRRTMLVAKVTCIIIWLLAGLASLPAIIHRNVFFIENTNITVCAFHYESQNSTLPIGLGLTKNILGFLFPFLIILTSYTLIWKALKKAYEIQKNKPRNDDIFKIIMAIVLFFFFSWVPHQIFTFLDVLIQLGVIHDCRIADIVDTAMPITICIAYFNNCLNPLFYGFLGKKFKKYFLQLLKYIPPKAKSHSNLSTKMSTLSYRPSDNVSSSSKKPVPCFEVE

[4] = target: Gamma-aminobutyric acid (GABA) B receptor 1 (Rattus norvegicus, UniProt Q6MFX8)
Histamine H1 receptor = Histamine H1 receptor (Cavia porcellus, UniProt P31389)
[5] = target: Gamma-aminobutyric acid receptor subunit alpha-1 (Rattus norvegicus, UniProt P62813)
[6] = target: 5-hydroxytryptamine receptor 4 (Cavia porcellus, UniProt O70528)
Sequence of 5-hydroxytryptamine receptor 4 (O70528 whole entry): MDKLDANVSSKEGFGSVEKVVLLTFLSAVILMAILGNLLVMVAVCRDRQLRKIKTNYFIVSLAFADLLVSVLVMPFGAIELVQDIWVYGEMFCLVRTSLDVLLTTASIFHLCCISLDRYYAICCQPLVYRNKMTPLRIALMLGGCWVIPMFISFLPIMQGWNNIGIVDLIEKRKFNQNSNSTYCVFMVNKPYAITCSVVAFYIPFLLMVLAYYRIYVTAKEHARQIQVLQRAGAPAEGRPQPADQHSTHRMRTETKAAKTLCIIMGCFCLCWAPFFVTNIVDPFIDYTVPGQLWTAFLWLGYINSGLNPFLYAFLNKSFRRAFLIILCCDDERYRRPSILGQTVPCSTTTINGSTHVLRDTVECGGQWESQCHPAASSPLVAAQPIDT

[7] = target: T2, Glycine receptor subunit alpha-1 (Rattus norvegicus, UniProt P07727)
T2 sequence (P07727 whole entry): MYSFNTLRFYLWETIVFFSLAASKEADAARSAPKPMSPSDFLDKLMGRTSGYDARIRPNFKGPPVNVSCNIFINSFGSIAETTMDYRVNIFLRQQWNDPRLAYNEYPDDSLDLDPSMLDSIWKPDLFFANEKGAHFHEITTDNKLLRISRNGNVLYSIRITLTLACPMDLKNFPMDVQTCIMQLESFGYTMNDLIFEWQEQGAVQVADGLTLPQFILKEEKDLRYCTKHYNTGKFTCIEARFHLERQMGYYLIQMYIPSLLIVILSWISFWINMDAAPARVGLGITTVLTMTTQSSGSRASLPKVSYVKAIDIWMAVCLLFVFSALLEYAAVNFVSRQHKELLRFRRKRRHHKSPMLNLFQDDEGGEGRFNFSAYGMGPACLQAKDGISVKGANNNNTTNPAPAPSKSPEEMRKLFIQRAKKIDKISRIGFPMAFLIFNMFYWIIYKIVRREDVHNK

[8] = target: Sigma non-opioid intracellular receptor 1 (Mus musculus, UniProt O55242)
[9] = target: T3, Glycine amidinotransferase, mitochondrial (Rattus norvegicus, UniProt P50442)
T3 sequence (P50442 whole entry): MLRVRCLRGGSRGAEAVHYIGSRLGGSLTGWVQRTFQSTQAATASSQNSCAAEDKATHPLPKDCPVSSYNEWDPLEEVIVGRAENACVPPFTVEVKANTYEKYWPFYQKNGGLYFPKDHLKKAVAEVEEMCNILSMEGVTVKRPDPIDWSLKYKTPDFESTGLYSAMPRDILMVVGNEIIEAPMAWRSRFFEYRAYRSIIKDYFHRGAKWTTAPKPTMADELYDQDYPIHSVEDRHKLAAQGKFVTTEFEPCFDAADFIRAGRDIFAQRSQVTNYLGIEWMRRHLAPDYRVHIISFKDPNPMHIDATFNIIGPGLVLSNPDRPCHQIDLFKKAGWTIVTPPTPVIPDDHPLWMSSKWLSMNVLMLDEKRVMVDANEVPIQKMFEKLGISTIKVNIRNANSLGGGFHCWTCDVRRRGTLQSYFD

[10] = target: Beta-2 adrenergic receptor (Rattus norvegicus, UniProt P10608)
Sequence of Beta-2 adrenergic receptor (P10608 whole entry): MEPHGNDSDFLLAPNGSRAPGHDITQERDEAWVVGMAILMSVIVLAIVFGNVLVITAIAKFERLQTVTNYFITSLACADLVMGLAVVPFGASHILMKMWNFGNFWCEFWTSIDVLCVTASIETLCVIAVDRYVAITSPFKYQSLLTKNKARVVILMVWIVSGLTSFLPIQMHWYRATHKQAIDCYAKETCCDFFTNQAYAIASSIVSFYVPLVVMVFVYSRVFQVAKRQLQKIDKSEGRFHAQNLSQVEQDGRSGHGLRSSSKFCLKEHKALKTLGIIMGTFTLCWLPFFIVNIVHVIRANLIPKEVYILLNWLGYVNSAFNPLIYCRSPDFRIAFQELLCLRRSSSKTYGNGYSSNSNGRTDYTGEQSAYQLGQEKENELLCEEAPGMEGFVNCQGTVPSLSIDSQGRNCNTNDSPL

Glutamate receptor 3 = Glutamate receptor 3 (Rattus norvegicus, UniProt P19492)
Sequence of Glutamate receptor 3 (P19492 whole entry): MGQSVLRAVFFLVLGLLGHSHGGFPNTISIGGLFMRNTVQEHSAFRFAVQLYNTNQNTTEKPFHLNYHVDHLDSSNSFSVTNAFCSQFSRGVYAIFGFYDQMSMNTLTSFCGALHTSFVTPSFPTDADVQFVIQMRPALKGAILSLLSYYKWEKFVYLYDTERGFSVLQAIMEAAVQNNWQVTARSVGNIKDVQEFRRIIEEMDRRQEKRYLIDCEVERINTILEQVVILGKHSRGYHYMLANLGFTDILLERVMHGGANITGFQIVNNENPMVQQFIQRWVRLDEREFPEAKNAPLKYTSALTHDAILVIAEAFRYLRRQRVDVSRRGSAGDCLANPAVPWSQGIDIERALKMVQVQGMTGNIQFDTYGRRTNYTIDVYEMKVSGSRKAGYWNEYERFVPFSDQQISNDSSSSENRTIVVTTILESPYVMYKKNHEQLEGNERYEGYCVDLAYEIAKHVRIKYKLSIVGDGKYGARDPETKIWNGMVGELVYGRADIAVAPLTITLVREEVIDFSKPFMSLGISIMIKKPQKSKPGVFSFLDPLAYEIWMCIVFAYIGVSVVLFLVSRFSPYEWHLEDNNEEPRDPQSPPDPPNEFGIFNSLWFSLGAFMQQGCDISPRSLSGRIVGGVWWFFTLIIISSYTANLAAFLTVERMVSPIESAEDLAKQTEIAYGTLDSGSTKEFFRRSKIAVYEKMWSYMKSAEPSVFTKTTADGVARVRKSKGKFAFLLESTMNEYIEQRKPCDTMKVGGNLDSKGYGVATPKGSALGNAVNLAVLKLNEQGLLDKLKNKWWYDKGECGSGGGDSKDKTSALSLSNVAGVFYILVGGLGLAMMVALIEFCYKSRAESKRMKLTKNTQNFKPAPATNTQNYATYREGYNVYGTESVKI

[11] = target: 5-hydroxytryptamine 1D receptor (Bos taurus, UniProt Q8MI13)
Nischarin = Nischarin (Rattus norvegicus, UniProt Q4G017)
Sequence of Nischarin (Q4G017 whole entry): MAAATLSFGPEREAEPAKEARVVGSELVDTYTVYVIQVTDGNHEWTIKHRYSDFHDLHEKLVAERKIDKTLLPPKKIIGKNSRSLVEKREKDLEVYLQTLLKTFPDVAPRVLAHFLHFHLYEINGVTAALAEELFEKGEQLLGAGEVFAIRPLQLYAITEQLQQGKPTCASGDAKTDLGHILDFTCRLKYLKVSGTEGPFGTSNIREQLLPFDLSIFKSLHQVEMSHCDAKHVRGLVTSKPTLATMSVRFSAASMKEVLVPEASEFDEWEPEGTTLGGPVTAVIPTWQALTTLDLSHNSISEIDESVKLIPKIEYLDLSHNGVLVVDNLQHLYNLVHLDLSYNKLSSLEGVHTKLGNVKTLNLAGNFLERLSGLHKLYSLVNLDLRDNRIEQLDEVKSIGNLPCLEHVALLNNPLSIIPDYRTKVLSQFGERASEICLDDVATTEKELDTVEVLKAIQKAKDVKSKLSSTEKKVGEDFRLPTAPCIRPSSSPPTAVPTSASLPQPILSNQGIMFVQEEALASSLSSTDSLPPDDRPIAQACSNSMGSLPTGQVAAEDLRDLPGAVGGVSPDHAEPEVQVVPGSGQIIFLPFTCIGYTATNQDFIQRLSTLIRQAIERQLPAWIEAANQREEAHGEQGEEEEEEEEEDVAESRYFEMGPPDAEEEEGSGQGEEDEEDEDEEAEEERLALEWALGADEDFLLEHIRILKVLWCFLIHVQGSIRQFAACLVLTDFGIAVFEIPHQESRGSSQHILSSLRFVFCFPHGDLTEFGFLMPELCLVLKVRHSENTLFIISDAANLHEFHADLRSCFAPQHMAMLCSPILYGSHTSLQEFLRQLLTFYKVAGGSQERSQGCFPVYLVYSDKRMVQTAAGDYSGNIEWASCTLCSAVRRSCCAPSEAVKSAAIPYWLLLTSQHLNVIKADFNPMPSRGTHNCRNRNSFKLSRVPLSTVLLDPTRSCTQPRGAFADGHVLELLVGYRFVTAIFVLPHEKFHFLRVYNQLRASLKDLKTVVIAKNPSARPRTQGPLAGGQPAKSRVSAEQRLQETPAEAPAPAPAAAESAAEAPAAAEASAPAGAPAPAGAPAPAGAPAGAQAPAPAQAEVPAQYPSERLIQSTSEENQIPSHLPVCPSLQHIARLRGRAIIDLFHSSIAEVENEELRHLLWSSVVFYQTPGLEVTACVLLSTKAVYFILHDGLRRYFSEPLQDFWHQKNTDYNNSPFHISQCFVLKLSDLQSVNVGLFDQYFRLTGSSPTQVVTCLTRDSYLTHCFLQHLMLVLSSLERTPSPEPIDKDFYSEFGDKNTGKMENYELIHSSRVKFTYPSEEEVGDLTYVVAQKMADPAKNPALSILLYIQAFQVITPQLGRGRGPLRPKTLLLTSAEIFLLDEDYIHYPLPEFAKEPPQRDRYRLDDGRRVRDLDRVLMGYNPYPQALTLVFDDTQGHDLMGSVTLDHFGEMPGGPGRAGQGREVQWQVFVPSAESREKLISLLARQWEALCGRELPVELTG

[12] = target: 5-hydroxytryptamine receptor 3A (Rattus norvegicus, UniProt P35563)
Sequence of 5-hydroxytryptamine receptor 3A (P35563 whole entry): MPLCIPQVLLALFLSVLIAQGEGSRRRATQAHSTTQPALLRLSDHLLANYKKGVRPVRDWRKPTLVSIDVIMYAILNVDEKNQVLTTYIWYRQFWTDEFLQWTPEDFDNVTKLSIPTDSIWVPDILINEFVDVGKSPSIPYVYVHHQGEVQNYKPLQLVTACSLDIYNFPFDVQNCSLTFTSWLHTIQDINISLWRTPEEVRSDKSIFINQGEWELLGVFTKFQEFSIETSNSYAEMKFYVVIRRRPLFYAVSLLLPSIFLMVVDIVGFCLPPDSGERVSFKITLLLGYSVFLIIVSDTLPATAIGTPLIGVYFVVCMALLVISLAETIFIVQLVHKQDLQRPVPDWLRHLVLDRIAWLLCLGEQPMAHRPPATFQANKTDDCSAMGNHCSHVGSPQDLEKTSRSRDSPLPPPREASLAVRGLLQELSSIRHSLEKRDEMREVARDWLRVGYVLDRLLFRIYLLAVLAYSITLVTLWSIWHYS

[13] = target: 5-hydroxytryptamine receptor 2C (Sus scrofa, UniProt G7ZKZ7)
[14] = target: Alpha-2C adrenergic receptor (Rattus norvegicus, UniProt P22086)
[15] = target: Muscarinic acetylcholine receptor M2 (Rattus norvegicus, UniProt P10980)
[16] = target: T4, Type-2 angiotensin II receptor (Rattus norvegicus, UniProt P35351)
T4 sequence (P35351 whole entry): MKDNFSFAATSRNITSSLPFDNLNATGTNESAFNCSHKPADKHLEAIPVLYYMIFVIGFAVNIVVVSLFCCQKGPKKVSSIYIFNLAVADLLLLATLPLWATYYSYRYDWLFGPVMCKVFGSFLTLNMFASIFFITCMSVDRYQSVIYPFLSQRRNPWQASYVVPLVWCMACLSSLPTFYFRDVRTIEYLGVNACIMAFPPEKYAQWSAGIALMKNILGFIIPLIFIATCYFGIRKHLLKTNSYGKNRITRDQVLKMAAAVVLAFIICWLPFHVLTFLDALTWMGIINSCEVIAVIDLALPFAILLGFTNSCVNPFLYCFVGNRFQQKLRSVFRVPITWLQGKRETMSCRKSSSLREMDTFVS

[17] = target: 5-hydroxytryptamine receptor 1B (Rattus norvegicus, UniProt P28564)
[18] = target: Voltage-dependent L-type calcium channel subunit alpha-1C (Rattus norvegicus, UniProt P22002)
[19] = target: 5-hydroxytryptamine receptor 1A (Rattus norvegicus, UniProt P19327)
[20] = target: Glutamate receptor ionotropic, NMDA 1 (Rattus norvegicus, UniProt P35439)
[21] = target: Alpha-1B adrenergic receptor (Rattus norvegicus, UniProt P15823)
[22] = target: 5-hydroxytryptamine receptor 2A (Rattus norvegicus, UniProt P14842)
[23] = target: Sodium-dependent dopamine transporter (Rattus norvegicus, UniProt P23977)
Adenosine receptor A1 = target: T5, Adenosine receptor A1 (Rattus norvegicus, UniProt P25099)
T5 sequence (P25099 whole entry): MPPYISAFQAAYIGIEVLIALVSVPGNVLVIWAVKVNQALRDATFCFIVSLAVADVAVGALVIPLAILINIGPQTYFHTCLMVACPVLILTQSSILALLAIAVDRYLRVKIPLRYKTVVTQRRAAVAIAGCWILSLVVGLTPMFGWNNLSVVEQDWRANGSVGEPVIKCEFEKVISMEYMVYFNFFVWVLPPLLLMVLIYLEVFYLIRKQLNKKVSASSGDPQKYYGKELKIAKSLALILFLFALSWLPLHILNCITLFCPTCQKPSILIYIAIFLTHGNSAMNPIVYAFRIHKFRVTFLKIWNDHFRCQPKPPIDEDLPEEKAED

D(2) dopamine receptor = D(2) dopamine receptor (Rattus norvegicus, UniProt P61169)
[24] = target: Gamma-aminobutyric acid type B receptor subunit 1 (UniProt Q9Z0U4)

Sequence of Glutamate receptor ionotropic, kainate 1 (P22756 whole entry): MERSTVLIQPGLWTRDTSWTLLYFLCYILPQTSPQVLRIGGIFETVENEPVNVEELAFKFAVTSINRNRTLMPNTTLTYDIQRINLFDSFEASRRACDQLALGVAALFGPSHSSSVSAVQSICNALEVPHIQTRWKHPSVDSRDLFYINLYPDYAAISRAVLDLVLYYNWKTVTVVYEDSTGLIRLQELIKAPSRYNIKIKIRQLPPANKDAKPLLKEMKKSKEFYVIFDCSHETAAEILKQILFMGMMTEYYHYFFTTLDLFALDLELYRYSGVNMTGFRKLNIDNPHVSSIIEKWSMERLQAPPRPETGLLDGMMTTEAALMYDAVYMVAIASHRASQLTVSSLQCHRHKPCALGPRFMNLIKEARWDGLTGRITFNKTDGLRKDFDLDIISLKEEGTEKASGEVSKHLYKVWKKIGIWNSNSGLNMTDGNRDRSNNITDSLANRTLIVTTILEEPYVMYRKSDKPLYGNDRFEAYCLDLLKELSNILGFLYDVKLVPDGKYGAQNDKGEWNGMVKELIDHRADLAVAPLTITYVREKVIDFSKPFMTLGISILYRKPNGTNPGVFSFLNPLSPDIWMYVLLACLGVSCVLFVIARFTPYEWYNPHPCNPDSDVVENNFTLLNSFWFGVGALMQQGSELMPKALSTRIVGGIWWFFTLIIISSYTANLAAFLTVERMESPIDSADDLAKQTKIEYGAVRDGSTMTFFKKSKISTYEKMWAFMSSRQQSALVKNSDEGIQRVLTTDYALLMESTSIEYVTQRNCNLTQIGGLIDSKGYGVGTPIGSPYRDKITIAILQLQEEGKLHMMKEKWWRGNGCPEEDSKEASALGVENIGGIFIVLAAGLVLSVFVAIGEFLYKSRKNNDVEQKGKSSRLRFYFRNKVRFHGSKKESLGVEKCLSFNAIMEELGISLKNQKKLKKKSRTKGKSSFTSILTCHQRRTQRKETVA

Row | Structure (SMILES) | Ki [1] | Ki (Adenosine receptor A2a) | Ki (D(3) dopamine receptor) | Ki [3] | Ki [6] | Ki [7] | Ki [8] | Ki [9] | Ki [10] | Ki (Glutamate receptor 3) | Ki (Nischarin) | Ki [12] | Ki [16] | Ki [18] | Ki [20] | Ki (Adenosine receptor A1) | Ki [24] | further results
1 | CCN1CCCC1CNC(=O)c1cc(S(=O)(=O)CC)c(N)cc1OC (centres undefined) [NSC_2159] | > 10 µM | > 10 µM | 0.0029 µM | > 10 µM | > 10 µM | > 10 µM | > 10 µM | > 10 µM | > 10 µM | > 10 µM | > 10 µM | > 10 µM | > 10 µM | > 10 µM | > 10 µM | > 10 µM |  | Ki [2]: > 10 µM; Ki [4]: > 10 µM; Ki (Histamine H1 receptor): > 10 µM; Ki [5]: > 10 µM; Ki [11]: > 10 µM; Ki [13]: > 10 µM; Ki [14]: 1.6 µM; Ki [15]: > 10 µM; Ki [17]: > 10 µM; Ki [19]: > 10 µM; Ki [21]: > 10 µM; Ki [22]: 2 µM; Ki [23]: > 10 µM; Ki (D(2) dopamine receptor): 0.021 µM
2 | CN1CCN(C2=c3ccccc3=Nc3ccc(Cl)cc3N2)CC1 [6-chloro-10-(4-methylpiperazin-1-yl)-2,9-diazatricyclo[9.4.0.0^{3,8}]pentadeca-1,3(8),4,6,10,12,14-heptaene] | > 10 µM | > 10 µM | 0.88 µM | > 10 µM | > 10 µM | > 10 µM | 6.4 µM | > 10 µM | > 10 µM | > 10 µM | > 10 µM |  | > 10 µM | > 10 µM | > 10 µM and 5 µM | > 10 µM | > 10 µM | 
3 | O=C(CCCN1CCC(O)(c2ccc(Cl)cc2)CC1)c1ccc(F)cc1 [4-[4-(4-Chloro-phenyl)-4-hydroxy-piperidin-1-yl]-1-(4-fluoro-phenyl)-butan-1-one;propionate(HCl)] | > 10 µM | > 10 µM |  | > 10 µM | > 10 µM | > 10 µM |  | > 10 µM | > 10 µM | > 10 µM | > 10 µM | > 10 µM | > 10 µM |  |  | > 10 µM | > 10 µM | 
